Assays:
Assay in all cases: KINOMEscan kinase binding assay (Kd)
Details in all cases: Table S1
CAMK4 = target: T1, CAMK4 (Homo sapiens, UniProt Q16566)
T1 construct: purchased DiscoveRx KINOMEscan (Ambit Biosciences)
T1 sequence (Q16566 1-473): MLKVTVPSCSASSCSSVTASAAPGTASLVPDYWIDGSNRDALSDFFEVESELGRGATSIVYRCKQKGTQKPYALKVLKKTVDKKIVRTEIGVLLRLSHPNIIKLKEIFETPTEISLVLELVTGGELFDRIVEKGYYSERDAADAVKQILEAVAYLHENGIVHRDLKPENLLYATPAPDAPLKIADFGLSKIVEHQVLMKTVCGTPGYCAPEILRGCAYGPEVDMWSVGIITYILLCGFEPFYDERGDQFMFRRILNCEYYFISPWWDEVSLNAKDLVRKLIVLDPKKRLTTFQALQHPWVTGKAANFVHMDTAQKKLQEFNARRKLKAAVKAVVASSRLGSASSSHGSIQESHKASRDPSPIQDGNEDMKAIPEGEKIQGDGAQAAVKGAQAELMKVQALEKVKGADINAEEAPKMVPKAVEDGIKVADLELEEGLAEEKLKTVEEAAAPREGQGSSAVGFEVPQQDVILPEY
Text: (§1) In vitro KINOMEscan kinase binding assays (Ambit Biosciences) were employed to determine the binding affinity (Kd) of compounds[41][42].
(§2) compound 1. The y have very similar spectrum of activity in enz ymatic and cellular
(§3) levels. Both of them have the ability to inhibit Wnt/β -catenin si gnalin g. However, in […]

CHEK1 = target: T2, CHEK1 (Homo sapiens, UniProt O14757)
T2 construct: purchased DiscoveRx KINOMEscan (Ambit Biosciences)
T2 sequence (O14757 1-476): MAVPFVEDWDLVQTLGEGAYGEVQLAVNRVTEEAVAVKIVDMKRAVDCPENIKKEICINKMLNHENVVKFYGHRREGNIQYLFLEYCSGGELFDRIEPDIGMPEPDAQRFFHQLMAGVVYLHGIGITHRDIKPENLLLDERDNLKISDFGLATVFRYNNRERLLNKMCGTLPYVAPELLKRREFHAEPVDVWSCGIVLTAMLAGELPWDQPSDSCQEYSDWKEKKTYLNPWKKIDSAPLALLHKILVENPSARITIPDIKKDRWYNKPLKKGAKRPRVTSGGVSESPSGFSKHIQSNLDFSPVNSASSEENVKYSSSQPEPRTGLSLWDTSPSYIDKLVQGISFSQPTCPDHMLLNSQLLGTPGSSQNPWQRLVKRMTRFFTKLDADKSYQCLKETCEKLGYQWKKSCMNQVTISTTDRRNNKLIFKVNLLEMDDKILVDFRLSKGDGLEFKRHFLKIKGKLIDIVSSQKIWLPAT
Text: as §1, §2, §3

DLK = target: T3, DLK (Homo sapiens, UniProt Q12852)
T3 sequence (Q12852 1-859): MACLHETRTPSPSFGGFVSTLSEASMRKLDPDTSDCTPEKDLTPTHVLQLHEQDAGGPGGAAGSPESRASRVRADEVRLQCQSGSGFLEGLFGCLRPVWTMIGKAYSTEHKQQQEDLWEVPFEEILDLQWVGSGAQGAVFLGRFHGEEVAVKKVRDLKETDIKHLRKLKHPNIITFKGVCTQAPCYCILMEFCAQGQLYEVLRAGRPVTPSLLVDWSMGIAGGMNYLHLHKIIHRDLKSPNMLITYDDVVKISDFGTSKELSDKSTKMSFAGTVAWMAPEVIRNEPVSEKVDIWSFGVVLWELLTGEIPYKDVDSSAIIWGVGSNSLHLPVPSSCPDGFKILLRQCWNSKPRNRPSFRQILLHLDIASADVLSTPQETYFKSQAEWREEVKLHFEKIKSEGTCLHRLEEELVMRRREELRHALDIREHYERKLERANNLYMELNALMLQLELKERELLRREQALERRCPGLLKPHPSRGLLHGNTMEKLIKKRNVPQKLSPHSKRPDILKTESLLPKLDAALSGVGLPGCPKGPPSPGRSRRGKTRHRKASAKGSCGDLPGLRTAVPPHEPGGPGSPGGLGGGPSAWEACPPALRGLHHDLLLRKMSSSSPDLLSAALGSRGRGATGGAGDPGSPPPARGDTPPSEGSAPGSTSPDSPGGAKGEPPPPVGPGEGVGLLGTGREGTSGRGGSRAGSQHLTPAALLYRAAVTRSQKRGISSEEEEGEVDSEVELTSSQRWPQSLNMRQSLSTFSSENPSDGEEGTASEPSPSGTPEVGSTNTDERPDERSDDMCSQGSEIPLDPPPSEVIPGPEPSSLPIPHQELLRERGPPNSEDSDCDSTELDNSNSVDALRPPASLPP
Text: as §1, §2, §3

DMPK = target: T4, DMPK (Homo sapiens, UniProt Q09013)
T4 construct: purchased DiscoveRx KINOMEscan (Ambit Biosciences)
T4 sequence (Q09013 1-629): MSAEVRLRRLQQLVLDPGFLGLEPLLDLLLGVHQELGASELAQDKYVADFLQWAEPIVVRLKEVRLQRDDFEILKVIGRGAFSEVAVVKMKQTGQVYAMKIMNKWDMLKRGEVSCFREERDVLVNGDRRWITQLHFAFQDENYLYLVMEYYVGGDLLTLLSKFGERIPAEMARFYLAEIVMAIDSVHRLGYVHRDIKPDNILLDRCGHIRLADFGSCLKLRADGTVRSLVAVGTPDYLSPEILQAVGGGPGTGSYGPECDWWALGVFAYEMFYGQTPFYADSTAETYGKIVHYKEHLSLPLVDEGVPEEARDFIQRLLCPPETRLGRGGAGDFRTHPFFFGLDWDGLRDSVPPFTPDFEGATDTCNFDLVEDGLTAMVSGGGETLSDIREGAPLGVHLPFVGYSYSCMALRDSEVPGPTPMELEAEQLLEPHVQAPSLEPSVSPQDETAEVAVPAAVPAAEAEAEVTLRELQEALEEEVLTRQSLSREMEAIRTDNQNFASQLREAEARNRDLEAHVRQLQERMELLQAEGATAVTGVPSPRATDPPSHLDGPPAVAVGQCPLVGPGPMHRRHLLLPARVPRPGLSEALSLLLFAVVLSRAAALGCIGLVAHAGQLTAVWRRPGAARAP
Text: as §1, §2, §3

ERBB4 = target: T5, ERBB4 (Homo sapiens, UniProt Q15303)
T5 construct: purchased DiscoveRx KINOMEscan (Ambit Biosciences)
Text: as §1, §2, §3

ERK = target: ERK
Text: as §1, §2, §3

ERN1 = ERN1 (Homo sapiens, UniProt O75460)
Text: as §1, §2, §3

IGF1R = target: T6, IGF1R (Homo sapiens, UniProt P08069)
T6 construct: DNA tag (qPCR read-out); purchased Ambit Biosciences (KINOMEscan service)
Text: as §1, §2, §3

PAK1 = PAK1 (Homo sapiens, UniProt Q13153)
Text: as §1, §2, §3

PAK2 = target: T7, PAK2 (Homo sapiens, UniProt Q13177)
T7 construct: purchased DiscoveRx KINOMEscan (Ambit Biosciences)
Text: as §1, §2, §3

Measured: Kd

T6 sequence (P08069 31-1367): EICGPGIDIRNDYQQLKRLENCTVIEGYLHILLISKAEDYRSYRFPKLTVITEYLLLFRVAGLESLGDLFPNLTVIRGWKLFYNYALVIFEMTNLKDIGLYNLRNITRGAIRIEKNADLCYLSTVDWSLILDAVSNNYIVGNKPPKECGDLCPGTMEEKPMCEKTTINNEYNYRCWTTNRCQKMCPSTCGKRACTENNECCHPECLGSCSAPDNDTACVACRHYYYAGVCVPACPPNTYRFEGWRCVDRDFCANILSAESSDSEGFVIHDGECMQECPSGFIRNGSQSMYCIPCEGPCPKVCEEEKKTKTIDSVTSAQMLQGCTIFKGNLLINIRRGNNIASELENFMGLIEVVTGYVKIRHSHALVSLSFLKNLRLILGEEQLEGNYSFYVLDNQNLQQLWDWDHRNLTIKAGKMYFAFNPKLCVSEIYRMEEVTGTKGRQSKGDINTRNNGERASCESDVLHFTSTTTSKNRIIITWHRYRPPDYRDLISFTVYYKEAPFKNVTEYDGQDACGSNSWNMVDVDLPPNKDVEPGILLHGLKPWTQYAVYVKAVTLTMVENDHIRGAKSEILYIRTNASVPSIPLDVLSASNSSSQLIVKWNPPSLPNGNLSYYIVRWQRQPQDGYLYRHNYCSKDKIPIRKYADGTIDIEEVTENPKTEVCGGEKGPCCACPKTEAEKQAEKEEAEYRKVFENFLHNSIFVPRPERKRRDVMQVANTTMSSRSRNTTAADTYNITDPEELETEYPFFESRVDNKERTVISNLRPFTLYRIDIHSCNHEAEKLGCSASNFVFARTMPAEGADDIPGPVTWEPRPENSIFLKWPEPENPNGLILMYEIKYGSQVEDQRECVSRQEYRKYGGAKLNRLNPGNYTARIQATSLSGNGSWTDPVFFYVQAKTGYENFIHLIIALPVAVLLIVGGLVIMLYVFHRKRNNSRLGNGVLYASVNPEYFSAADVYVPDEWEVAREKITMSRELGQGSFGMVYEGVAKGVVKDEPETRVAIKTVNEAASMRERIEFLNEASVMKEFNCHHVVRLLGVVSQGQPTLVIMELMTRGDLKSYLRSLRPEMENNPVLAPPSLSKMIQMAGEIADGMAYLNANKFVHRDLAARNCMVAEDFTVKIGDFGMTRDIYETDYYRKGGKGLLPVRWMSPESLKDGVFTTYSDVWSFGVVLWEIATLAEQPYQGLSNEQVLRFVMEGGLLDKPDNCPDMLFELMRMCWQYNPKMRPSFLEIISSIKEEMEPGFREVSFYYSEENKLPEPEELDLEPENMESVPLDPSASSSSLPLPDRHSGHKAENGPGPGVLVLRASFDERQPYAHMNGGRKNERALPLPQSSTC
T5 sequence (Q15303 26-1308): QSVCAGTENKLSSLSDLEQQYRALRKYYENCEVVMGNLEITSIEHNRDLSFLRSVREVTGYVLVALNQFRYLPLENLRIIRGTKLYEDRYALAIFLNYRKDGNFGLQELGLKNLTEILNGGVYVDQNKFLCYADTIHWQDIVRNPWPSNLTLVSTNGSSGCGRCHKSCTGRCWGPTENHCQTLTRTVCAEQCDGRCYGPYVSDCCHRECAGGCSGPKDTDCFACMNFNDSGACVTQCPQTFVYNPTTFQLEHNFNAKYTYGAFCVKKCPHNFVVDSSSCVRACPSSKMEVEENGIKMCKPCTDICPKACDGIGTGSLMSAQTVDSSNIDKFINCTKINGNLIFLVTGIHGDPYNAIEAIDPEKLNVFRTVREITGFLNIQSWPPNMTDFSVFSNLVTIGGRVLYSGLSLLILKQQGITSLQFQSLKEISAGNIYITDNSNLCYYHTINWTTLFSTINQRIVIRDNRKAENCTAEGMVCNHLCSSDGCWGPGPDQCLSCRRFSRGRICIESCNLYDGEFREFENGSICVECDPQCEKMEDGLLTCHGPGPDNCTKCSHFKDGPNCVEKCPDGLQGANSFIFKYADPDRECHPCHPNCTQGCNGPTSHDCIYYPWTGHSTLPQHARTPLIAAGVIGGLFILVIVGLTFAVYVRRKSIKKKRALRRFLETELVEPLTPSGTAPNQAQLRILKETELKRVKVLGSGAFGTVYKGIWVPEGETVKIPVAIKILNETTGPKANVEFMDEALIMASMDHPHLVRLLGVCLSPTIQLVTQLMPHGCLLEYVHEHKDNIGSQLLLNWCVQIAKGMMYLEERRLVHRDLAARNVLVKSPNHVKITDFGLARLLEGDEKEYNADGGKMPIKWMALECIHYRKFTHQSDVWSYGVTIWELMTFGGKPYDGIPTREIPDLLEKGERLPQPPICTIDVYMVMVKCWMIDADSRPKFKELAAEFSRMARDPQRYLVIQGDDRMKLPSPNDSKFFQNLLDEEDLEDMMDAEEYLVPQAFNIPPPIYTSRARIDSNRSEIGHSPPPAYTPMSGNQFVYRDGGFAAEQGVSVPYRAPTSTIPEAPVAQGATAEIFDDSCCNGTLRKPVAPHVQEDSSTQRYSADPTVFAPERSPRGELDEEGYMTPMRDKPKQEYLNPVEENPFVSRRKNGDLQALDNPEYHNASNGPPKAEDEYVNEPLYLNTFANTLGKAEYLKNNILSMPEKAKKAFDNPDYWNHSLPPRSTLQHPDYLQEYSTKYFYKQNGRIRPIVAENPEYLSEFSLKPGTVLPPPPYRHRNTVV
Sequence of ERN1 (O75460 19-977): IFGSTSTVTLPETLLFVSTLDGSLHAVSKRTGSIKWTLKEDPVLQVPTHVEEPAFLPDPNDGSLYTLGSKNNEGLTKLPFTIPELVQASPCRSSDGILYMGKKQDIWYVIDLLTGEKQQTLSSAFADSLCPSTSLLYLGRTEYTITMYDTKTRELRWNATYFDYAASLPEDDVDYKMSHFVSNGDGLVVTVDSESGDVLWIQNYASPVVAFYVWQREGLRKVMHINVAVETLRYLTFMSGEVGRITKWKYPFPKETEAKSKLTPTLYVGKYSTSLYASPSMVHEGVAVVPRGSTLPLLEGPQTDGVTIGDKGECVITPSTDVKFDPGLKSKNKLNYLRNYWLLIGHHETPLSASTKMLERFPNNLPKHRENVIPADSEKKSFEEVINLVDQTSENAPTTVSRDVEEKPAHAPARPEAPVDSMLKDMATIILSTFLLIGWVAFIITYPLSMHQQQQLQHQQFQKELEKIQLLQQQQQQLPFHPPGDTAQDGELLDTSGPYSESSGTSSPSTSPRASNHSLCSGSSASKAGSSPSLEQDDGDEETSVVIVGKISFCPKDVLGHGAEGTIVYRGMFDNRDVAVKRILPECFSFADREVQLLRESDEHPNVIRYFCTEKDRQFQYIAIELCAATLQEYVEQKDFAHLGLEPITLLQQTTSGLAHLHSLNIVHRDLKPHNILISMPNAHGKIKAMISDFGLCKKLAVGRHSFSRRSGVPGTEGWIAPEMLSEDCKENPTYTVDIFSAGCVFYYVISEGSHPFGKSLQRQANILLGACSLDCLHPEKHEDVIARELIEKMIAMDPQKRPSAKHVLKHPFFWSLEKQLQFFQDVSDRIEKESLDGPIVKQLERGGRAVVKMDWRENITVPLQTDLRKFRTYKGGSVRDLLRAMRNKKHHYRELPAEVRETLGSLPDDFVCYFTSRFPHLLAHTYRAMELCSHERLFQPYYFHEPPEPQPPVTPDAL
Sequence of PAK1 (Q13153 whole entry): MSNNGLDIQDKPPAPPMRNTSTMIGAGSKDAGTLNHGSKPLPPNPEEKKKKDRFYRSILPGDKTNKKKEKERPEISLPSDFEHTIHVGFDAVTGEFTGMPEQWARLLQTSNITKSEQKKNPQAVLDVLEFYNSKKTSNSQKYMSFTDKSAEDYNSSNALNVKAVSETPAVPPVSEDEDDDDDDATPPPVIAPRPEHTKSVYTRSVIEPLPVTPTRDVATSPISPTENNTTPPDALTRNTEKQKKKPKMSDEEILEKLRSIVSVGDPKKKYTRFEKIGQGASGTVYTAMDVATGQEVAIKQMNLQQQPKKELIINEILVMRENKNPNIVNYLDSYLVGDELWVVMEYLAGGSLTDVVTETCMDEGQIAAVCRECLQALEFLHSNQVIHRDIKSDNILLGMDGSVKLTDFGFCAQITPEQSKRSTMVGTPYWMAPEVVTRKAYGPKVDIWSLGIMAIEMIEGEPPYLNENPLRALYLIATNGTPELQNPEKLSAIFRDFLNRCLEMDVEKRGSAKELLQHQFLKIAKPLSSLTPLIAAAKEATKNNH
T7 sequence (Q13177 whole entry): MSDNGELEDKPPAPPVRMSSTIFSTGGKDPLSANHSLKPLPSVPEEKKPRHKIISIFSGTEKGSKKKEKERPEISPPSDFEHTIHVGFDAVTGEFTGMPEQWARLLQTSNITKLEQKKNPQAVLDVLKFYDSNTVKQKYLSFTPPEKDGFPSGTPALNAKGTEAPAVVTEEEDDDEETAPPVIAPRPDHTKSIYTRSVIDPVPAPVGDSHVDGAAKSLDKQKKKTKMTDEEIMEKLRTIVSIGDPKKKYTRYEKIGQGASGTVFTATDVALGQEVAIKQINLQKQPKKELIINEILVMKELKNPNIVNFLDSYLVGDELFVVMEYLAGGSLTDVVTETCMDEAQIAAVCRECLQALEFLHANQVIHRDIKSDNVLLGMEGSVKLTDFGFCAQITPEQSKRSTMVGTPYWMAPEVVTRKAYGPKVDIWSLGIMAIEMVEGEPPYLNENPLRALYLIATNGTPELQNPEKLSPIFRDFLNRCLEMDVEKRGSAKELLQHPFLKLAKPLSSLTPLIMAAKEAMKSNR

CC(C)(C)c1cc(NC(=O)Nc2ccc(Oc3ncnc4[nH]ncc34)c(F)c2)no1 [SKLB-677, 1-(4-(1H-pyrazolo[3,4-d]pyrimidin-4-yloxy)-3-fluorophenyl)-3-(5-tert-butylisoxazol-3-yl)urea]
> 10 µM: all assays above

From PMC4620497 (Scientific Reports, 2015)
